Results published in patent US11945822B2, “Pyrazolo-triazine and/or pyrazolo-pxrimidine derivatives as selective inhibitor of cyclin dependent kinase” (QURIENT CO., LTD., priority 2018, dated 2024).

Key:
[1] = target: T1, CDK5/p25 (Homo sapiens, UniProt Q00535); experiment: Enzymatic assay for CDK5 (FRET based LANCE Ultra kinase assay); type: biochemical; settings: read-out: CDK5 enzymatic activity (IC50 range)
T1 construct: purchased Invitrogen PR8543B
How it was run: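 TR-FRET (LANCE Ultra) kinase assay at ATP Km, ULight-MBP peptide substrate (68 nM), 8-dose 4-fold compound series in DMSO. Enzymes: […]; 60 min at 23° C., stopped with EDTA plus Eu-anti-phospho-MBP antibody, read 665/615 nm after 60 min.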

[2] = tested on: HCT116; experiment: Cellular HCT116 viability assay (CellTiter-Glo, 72 hours); type: cell-based; settings: Homo sapiens, HCT-116
How it was run: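 72 h treatment, 37 °C, 5% CO2; DMSO ctrl, final <0.1%; CellTiter-Glo luminescence; n=2.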

T1 sequence (Q00535 whole entry): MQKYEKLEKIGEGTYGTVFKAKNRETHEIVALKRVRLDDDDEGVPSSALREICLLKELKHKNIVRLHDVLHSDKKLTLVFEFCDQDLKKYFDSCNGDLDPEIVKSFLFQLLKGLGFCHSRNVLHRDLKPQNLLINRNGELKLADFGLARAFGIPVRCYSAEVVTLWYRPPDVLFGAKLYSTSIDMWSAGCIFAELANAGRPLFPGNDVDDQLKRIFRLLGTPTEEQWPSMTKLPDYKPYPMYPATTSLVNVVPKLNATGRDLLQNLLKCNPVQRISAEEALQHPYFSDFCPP
T1 sequence (Q15078 99-307 partner limits assumed): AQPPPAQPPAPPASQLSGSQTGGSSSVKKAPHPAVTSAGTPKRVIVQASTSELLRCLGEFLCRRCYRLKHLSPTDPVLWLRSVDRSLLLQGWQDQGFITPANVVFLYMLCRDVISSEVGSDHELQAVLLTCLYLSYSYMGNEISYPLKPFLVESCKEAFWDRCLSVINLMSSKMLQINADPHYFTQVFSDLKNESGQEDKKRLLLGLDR

Question: With `CC(C)c1cnn2c(NCc3c(Cl)cccc3-n3ccc(C(C)(C)O)n3)nc(N3CCC(N)CC3)nc12` [Compound 210] as the compound, how does the IC50 [1] read?
Answer: Its IC50 is 100 to 1000 nM.

Question: And the IC50 [2]?
Answer: Its IC50 is under 1000 nM.
